According to patent US9095613B2, “Photosensitizer-metal nanoparticle charge complex and composition containing the complex for photodynamic therapy or diagnosis” (NATIONAL CANCER CENTER, priority 2009, dated 2015):
Like-named read-outs stand apart in the source and are kept apart here.

Tests used:
skin photosensitivity = conditions: patient after administration; cited from earlier work
SCC7 xenograft tumor [1] = assay: Near-infrared fluorescence imaging of tumor in xenograft model; format: in vivo, Balb/c-nu mice; conditions: 1 mg AlPcS4 equivalent/kg, tail vein, 24 hours after injection
Protocol: (§1) 2×10^6 cells per 100 μl of the SCC7 cell line were injected subcutaneously to hind legs of Balb/c-nu mice of 19 to 22 g to create xenograft tumor models. When a tumor was grown to a size of about […], 29 experimental animals were divided into three groups (Day 0) based on the tumor size. Among them, 6 mice were used for near-infrared fluorescence imaging using the photosensitizer, and the other 23 mice were used to observe an inhibitory effect on tumor growth through the photodynamic therapy. A volume of the tumor was calculated with an equation of height×length×width×0.5.
(§2) For each of the AlPcS4-treated group and the GNR/AlPcS4 complex-treated group, the drug (each of AlPcS4 and GNR/AlPcS4 complex prepared in Preparation Example 2-4) dissolved in PBS (6.7 mM, pH 7.4, NaCl 154 mM) was injected into a tail vein of a mouse at the dose of 1 mg AlPcS4 equivalent/kilogram body weight. […] To compare the near-infrared fluorescence image and the accumulated amount in the tumor of the injected photosensitizer, two mice were taken from each group after 24 hours from the treatment of the drug (Day 2), and therefrom fluorescence images of AlPcS4 were obtained using a near-infrared fluorescence image device (IVIS Lumina) (Cy5.5 channel; Ex. filter 615-665 nm, Em. Filter 695-770 nm).

SCC7 xenograft tumor [2] = assay: Inhibition of tumor growth by photodynamic therapy in xenograft model; format: in vivo, Balb/c-nu mice; conditions: 1 mg AlPcS4 equivalent/kg i.v., 670 nm 60 J/cm^2
Protocol: as §1
as §2, with “nm). […]” for “nm).”

SCC7 cell line = assay: Cell viability test after photodynamic therapy (CCK-8); format: cell-based; conditions: 5 μM AlPcS4 equivalent, 670 nm, 10 J/cm^2, after 24 hours
Protocol: 9000 cells of a SCC7 cell line per well were seeded in a 96 well plate, and cultured for 24 hours. After the AlPcS4 and the GNR/AlPcS4 complex prepared in Preparation Example 2-4 were diluted with a cell culture medium to have an equivalent concentration of 5 μM AlPcS4, 200 μl of the diluted solution per well was added and then maintained at 37° C. for 4 hours. For a control group, the same volume of cell culture medium was added to the plate. Afterwards, to remove the photosensitizer which was not taken up into the cell, the cells were washed with a cell culture medium twice, and then a fresh cell culture medium was added. The PDT-treated groups were irradiated with light at 670 nm using laser under conditions of a light dose density of 50 mW/cm^2 and light doses of 5 J/cm^2 and 10 J/cm^2. After 24 hours, cell viability was measured using a cell counting kit-8 (CCK-8, Dojindo Laboratories).

[3] = at 675 nm, known value; cited from earlier work
[4] = system: SCC7 (Squamous cell Carcinoma) cell line; assay: Quantitative analysis of uptake into cells (fluorescence of cell lysis solution); format: cell-based; conditions: 5 μM AlPcS4 equivalent, 4 hours
Protocol: 90000 cells of a SCC7 (Squamous cell Carcinoma) cell line per well were seeded in a 96 well plate and cultured for 24 hours. Afterwards, the AlPcS4 and the GNR/AlPcS4 complex prepared in Preparation Example 2-4 were diluted with a cell culture medium containing serum to have an equivalent concentration of 5 μM AlPcS4. […] of the diluted solution per well was added, and maintained at 37° C. for 4 hours. Subsequently, after the cell culture medium containing the photosensitizer was removed, the cells were washed three times, and then treated with 200 μl of 0.1% SDS/0.1M NaOH solution for 2 hours for cell lysis. Then, a fluorescence signal of the AlPcS4 generated from this solution was measured (Ex. 660 nm, Em. 690 nm).

[5] = at 630 nm; cited from earlier work

average fluorescence signal in tumor (SCC7 xenograft tumor [1]) | tumor-to-background ratio of the AlPcS4 fluorescence (SCC7 xenograft tumor [1]) | Compound | duration of side effect of skin photosensitivity (skin photosensitivity) | course of tumor size after photodynamic therapy (SCC7 xenograft tumor [2]) | size of the tumor relative to control group (SCC7 xenograft tumor [2]; fifth day) | phototoxicity (SCC7 cell line) | molar absorption coefficient [3] | effect of increasing amount of serum (FBS) on uptake into cells [4] | molar absorption coefficient [5]
– | – | C=Cc1c(C)c2cc3nc(c(CC(=O)N[C@@H](CC(=O)[O-])C(=O)[O-])c4nc(cc5[nH]c(cc1[nH]2)c(C)c5CC)C(C)=C4C(=O)[O-])[C@@H](CCC(=O)[O-])[C@@H]3C.[Na+].[Na+].[Na+].[Na+] [Mono-L-aspartyl chlorine e6, mono-L-aspartyl chlorine e6] | 1 week | – | – | – | – | – | –
7224 counts | 2.5 | Al(III) phthalocyanine chloride tetrasulfonic acid [AlPcS4] | – | temporarily decreased | 67% | 64% | 170000 M⁻¹ cm⁻¹ | greatly decreased | –
– | – | Photofrin | more than 6 week | – | – | – | – | – | 1170 M⁻¹ cm⁻¹
